In patent publication US10308643B2, “Heterocyclic compound” (Takeda Pharmaceutical Company Limited, priority 2015, dated 2019):

Columns and labels:
Format in all cases: biochemical
HDAC6 enzyme = molecular target: T1, HDAC6 enzyme (Homo sapiens, UniProt Q9UBN7); assay: HDAC1/6 Enzyme Inhibitory Assay (HDAC-Glo I/II Assay kit), HDAC6; conditions: 1 μM test compound, wells without enzyme = 100% inhibition; for inhibition at 1 µM: read-out: HDAC6 inhibitory rate (%) (1 μM)
T1 construct: transducing full length HDAC1 and HDAC6 genes into Sf-9 insect cells; GST; purchased SignalChem; host or cells: Sf-9 insect cells
T1 sequence (Q9UBN7 1-1215): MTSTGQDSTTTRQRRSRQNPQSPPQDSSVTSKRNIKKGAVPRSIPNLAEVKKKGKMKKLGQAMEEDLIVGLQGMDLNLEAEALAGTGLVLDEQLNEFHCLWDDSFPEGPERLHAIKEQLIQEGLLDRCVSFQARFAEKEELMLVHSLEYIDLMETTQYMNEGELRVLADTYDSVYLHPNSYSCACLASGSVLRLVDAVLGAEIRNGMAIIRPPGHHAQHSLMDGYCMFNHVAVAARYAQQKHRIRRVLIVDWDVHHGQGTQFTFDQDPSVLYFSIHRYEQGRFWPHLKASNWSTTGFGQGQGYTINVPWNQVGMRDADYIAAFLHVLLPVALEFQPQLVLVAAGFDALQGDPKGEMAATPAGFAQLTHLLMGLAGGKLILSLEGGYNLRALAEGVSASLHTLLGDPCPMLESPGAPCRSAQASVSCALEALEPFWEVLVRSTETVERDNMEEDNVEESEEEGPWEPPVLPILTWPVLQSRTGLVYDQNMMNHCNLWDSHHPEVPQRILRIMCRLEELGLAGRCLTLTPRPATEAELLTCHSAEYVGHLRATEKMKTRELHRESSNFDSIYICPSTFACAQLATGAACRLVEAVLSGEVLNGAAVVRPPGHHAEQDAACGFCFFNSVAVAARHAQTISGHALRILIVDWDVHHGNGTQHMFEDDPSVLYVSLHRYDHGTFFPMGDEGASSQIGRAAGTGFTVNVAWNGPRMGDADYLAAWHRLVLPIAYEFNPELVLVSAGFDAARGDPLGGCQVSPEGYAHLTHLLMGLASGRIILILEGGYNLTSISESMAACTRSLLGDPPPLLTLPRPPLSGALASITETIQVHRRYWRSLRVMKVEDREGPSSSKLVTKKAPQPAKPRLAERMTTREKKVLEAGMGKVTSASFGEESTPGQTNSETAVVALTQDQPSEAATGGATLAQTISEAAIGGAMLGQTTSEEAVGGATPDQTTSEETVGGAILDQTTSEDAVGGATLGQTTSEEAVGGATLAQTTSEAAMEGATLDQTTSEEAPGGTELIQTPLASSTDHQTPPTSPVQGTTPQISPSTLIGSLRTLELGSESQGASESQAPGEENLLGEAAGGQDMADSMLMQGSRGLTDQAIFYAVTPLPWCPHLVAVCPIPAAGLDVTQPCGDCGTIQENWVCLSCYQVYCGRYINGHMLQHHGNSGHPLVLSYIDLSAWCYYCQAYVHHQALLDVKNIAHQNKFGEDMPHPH
In short: (§1)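 Enzyme source: full-length HDAC1/HDAC6, Sf-9, GST-purified. Assay buffer 24 mM Tris-HCl (pH 7.5), 1 mM MgCl2, 0.35 mM KCl, 135 mM NaCl. Compound–enzyme 60 min RT, then HDAC-Glo reagent 20 min RT, luminescence; inhibition relative to no-enzyme control.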

HDAC9 enzyme = molecular target: T2, HDAC9 enzyme (Homo sapiens, UniProt Q9UKV0); assay: HDAC9 Enzyme Inhibitory Assay (HDAC-Glo class IIa); conditions: 1 μM test compound, wells without enzyme = 100% inhibition; for inhibition at 1 µM: read-out: HDAC9 inhibitory rate (%) (1 μM)
T2 construct: transducing full length HDAC9 gene into Sf-9 insect cells; made in house; host or cells: Sf-9 insect cells
T2 sequence (Q9UKV0 whole entry, species assumed): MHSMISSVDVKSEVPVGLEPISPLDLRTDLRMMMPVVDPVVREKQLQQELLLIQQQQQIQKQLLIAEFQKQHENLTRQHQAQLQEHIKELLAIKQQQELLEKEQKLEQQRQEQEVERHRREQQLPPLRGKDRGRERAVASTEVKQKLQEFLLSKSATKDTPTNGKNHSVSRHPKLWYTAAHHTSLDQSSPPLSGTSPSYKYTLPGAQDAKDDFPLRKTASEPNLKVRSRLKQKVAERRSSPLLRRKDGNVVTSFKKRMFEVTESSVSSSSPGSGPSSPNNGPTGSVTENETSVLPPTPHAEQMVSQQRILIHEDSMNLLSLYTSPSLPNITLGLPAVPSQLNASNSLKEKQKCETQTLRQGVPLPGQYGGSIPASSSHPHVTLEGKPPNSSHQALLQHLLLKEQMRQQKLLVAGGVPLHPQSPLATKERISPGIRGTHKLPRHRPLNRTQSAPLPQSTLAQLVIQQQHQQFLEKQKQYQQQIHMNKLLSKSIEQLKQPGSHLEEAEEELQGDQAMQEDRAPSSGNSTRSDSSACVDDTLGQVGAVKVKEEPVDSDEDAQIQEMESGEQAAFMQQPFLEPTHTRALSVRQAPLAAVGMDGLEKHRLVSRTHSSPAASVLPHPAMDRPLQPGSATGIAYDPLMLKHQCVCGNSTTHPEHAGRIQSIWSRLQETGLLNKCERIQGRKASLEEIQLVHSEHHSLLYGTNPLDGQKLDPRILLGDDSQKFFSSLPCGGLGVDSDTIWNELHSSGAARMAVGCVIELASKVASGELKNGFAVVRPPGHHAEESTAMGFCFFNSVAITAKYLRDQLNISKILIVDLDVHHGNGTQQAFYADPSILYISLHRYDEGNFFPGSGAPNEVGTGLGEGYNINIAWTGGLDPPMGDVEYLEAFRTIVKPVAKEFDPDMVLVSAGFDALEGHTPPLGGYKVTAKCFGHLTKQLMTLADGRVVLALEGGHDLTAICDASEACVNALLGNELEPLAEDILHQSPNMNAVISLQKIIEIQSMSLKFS
In short: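 Luminescent HDAC-Glo class IIa readout after a 20 min room-temperature reaction; relative inhibition referenced to enzyme-free wells as 100%. Test compound first preincubated 60 min with Sf-9-expressed, Ni-NTA-purified full-length HDAC9 in pH 7.5 Tris buffer containing 135 mM NaCl, 0.6 mM glutathione and 0.01% Tween-20.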

HDAC1 enzyme = molecular target: T3, HDAC1 enzyme (Homo sapiens, UniProt Q13547); assay: HDAC1/6 Enzyme Inhibitory Assay (HDAC-Glo I/II Assay kit), HDAC1; conditions: 1 μM test compound, wells without enzyme = 100% inhibition; for inhibition at 1 µM: read-out: HDAC1 inhibitory rate (%) (1 μM)
T3 construct: transducing full length HDAC1 and HDAC6 genes into Sf-9 insect cells; GST; purchased SignalChem; host or cells: Sf-9 insect cells
T3 sequence (Q13547 whole entry): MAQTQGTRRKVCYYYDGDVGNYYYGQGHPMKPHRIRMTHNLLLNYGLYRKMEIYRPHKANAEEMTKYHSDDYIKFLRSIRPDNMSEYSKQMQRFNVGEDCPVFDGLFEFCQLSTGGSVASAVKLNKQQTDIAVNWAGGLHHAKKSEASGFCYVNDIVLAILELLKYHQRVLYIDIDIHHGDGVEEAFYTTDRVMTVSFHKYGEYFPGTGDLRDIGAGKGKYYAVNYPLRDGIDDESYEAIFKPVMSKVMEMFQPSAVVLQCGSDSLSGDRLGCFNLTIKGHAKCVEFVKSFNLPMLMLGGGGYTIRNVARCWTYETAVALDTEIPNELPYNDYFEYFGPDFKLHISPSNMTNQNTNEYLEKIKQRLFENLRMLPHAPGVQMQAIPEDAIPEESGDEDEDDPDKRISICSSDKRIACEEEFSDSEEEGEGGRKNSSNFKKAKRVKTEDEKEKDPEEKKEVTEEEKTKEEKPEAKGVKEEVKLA
In short: as §1

inhibition at 1 µM (HDAC6 enzyme) [%]	inhibition at 1 µM (HDAC9 enzyme) [%]	inhibition at 1 µM (HDAC1 enzyme) [%]	HDAC6 inhibitory rate (%) (1 μM) (HDAC6 enzyme; 1 µM)	HDAC9 inhibitory rate (%) (1 μM) (HDAC9 enzyme; 1 µM)	HDAC1 inhibitory rate (%) (1 μM) (HDAC1 enzyme; 1 µM)	SMILES
94	99	93	–	–	–	Cc1cc([C@@H]2CNCC[C@H]2N2Cc3ccc(-c4noc(C(F)(F)F)n4)cc3C2=O)ccc1Cl (relative stereo) [Example 57, 2-(trans-3-(4-chloro-3-methylphenyl)piperidin-4-yl)-6-(5-(trifluoromethyl)-1,2,4-oxadiazol-3-yl)isoindolin-1-one]
98	46	5	–	–	–	O=C1CCC(C(=O)N[C@@H]2CCCC[C@H]2N2Cc3ccc(-c4noc(C(F)(F)F)n4)cc3C2=O)=NN1 [Example 118, 6-oxo-N-((1R,2R)-2-(1-oxo-6-(5-(trifluoromethyl)-1,2,4-oxadiazol-3-yl)-1,3-dihydro-2H-isoindol-2-yl)cyclohexyl)-1,4,5,6-tetrahydropyridazine-3-carboxamide]
98	99	93	–	–	–	Cc1cc(F)ccc1[C@@H]1CNCC[C@H]1N1Cc2ccc(-c3noc(C(F)(F)F)n3)cc2C1=O (relative stereo) [Example 50, 2-(trans-3-(4-fluoro-2-methylphenyl)piperidin-4-yl)-6-(5-(trifluoromethyl)-1,2,4-oxadiazol-3-yl)isoindolin-1-one]
98	99	99	–	–	–	O=C1c2cc(-c3noc(C(F)(F)F)n3)ccc2CN1C1CCNC[C@@H]1c1cc(Cl)cc(Cl)c1 (stereo in doubt) [Example 58, 2-(trans-3-(3,5-dichlorophenyl)piperidin-4-yl)-6-(5-(trifluoromethyl)-1,2,4-oxadiazol-3-yl)isoindolin-1-one]

The next lines start with the compound.

SMILES	inhibition at 1 µM (HDAC6 enzyme) [%]	inhibition at 1 µM (HDAC9 enzyme) [%]	inhibition at 1 µM (HDAC1 enzyme) [%]	HDAC6 inhibitory rate (%) (1 μM) (HDAC6 enzyme; 1 µM)	HDAC9 inhibitory rate (%) (1 μM) (HDAC9 enzyme; 1 µM)	HDAC1 inhibitory rate (%) (1 μM) (HDAC1 enzyme; 1 µM)
O=C(N[C@@H]1CCOC[C@H]1N1Cc2ccc(-c3noc(C(F)(F)F)n3)cc2C1=O)[C@H]1CCOC1 [Example 208, (3S)-N-((3S,4R)-3-(1-oxo-6-(5-(trifluoromethyl)-1,2,4-oxadiazol-3-yl)-1,3-dihydro-2H-isoindol-2-yl)tetrahydro-2H-pyran-4-yl)tetrahydrofuran-3-carboxamide]	98	53	4	–	–	–
O=C1CCCN1[C@@H]1CCOC[C@H]1N1Cc2ccc(-c3noc(C(F)(F)F)n3)cc2C1=O [Example 183, 2-((3S,4R)-4-(2-oxopyrrolidin-1-yl)tetrahydro-2H-pyran-3-yl)-6-(5-(trifluoromethyl)-1,2,4-oxadiazol-3-yl)isoindolin-1-one]	–	–	–	77	47	1
O=C1CCCN1c1cccc(Cl)c1N1Cc2ccc(-c3noc(C(F)(F)F)n3)cc2C1=O [Example 185, 2-(2-chloro-6-(2-oxopyrrolidin-1-yl)phenyl)-6-(5-(trifluoromethyl)-1,2,4-oxadiazol-3-yl)isoindolin-1-one]	97	41	5	–	–	–
O=C(N[C@@H]1COCC[C@H]1N1Cc2ccc(-c3noc(C(F)(F)F)n3)cc2C1=O)C1CC1 [Example 82, N-((3S,4R)-4-(1-oxo-6-(5-(trifluoromethyl)-1,2,4-oxadiazol-3-yl)-1,3-dihydro-2H-isoindol-2-yl)tetrahydro-2H-pyran-3-yl)cyclopropanecarboxamide]	99	61	10	–	–	–
CC(C)(O)C(=O)N[C@H]1CCCC[C@@H]1N1Cc2ccc(-c3noc(C(F)(F)F)n3)cc2C1=O [Example 219, 2-hydroxy-2-methyl-N-((1S,2S)-2-(1-oxo-6-(5-(trifluoromethyl)-1,2,4-oxadiazol-3-yl)-1,3-dihydro-2H-isoindol-2-yl)cyclohexyl)propanamide]	40	50	5	–	–	–
